Reference: publication PMC5218480 (PLoS ONE, 2017)

Tested on: MV-4-11 cells
Test: Gene expression microarray analysis (Affymetrix PrimeView) and GSEA
Format: cell-based, human
Design: RFU PODN (11730768_x_at) / Fold change /veh PODN (11730768_x_at) / RFU LINC00158 (11744669_a_at) / Fold change /veh LINC00158 (11744669_a_at) / RFU DUSP10 (11751237_a_at) / Fold change /veh DUSP10 (11751237_a_at) / RFU ID3 (11757404_x_at) / Fold change /veh ID3 (11757404_x_at) / RFU PLEKHG5 (11737974_s_at) / Fold change /veh PLEKHG5 (11737974_s_at) / RFU LRRC4B (11730491_at) / Fold change /veh LRRC4B (11730491_at) / RFU GIMAP4 (11747438_a_at) / Fold change /veh GIMAP4 (11747438_a_at) / RFU KRT8 (11758183_x_at) / Fold change /veh KRT8 (11758183_x_at) / RFU CNN1 (11734310_a_at) / Fold change /veh CNN1 (11734310_a_at) / RFU VPS37D (11726825_at) / Fold change /veh VPS37D (11726825_at) / RFU C10orf10 (11716522_x_at) / Fold change /veh C10orf10 (11716522_x_at) / RFU KIR2DL2 /// KIR2DL4 /// KIR2DL5A /// KIR2DL5B /// KIR2DS1 /// KIR2DS2 /// KIR2DS3 /// KIR2DS4 /// KIR3DL3 /// KIR3DL3 /// KIR3DS1 (11738374_at) / Fold change /veh KIR2DL2 /// KIR2DL4 /// KIR2DL5A /// KIR2DL5B /// KIR2DS1 /// KIR2DS2 /// KIR2DS3 /// KIR2DS4 /// KIR3DL3 /// KIR3DL3 /// KIR3DS1 (11738374_at) / RFU C1QL1 (11718748_at) / Fold change /veh C1QL1 (11718748_at) / RFU TMPRSS4 (11747572_a_at) / Fold change /veh TMPRSS4 (11747572_a_at) / RFU HAMP (11756126_x_at) / Fold change /veh HAMP (11756126_x_at) / RFU RNFT2 (11725882_a_at) / Fold change /veh RNFT2 (11725882_a_at) / RFU NR4A2 (11747474_a_at) / Fold change /veh NR4A2 (11747474_a_at) / RFU ABCC12 (11746883_a_at) / Fold change /veh ABCC12 (11746883_a_at) / RFU TMEM136 (11760407_x_at) / Fold change /veh TMEM136 (11760407_x_at) / RFU CLDN22 /// WWC2 (11732394_at) / Fold change /veh CLDN22 /// WWC2 (11732394_at) / RFU HLA-DPB1 (11760878_x_at) / Fold change /veh HLA-DPB1 (11760878_x_at) / RFU SPINT1 (11716480_a_at) / Fold change /veh SPINT1 (11716480_a_at) / RFU GAP43 (11754022_s_at) / Fold change /veh GAP43 (11754022_s_at) / RFU A4GNT (11735810_at) / Fold change /veh A4GNT (11735810_at) / RFU PRB3 (11715151_x_at) / Fold change /veh PRB3 (11715151_x_at) / RFU TUBB4B (11761932_at) / Fold change /veh TUBB4B (11761932_at) / RFU CAPN14 (11732068_a_at) / Fold change /veh CAPN14 (11732068_a_at) / RFU TMCC2 (11721928_a_at) / Fold change /veh TMCC2 (11721928_a_at) / RFU IRGQ (11745062_a_at) / Fold change /veh IRGQ (11745062_a_at) / RFU FAM174B (11720279_a_at) / Fold change /veh FAM174B (11720279_a_at) / RFU TMPRSS4 (11748680_a_at) / Fold change /veh TMPRSS4 (11748680_a_at) / RFU FAM212B (11763350_a_at) / Fold change /veh FAM212B (11763350_a_at) / RFU PLEKHG5 (11743358_a_at) / Fold change /veh PLEKHG5 (11743358_a_at) / RFU ZSCAN30 (11745921_a_at) / Fold change /veh ZSCAN30 (11745921_a_at) / RFU CMKLR1 (11741424_a_at) / Fold change /veh CMKLR1 (11741424_a_at) / RFU LOC101060620 /// MAPK8IP1 (11723275_at) / Fold change /veh LOC101060620 /// MAPK8IP1 (11723275_at) / RFU SPTSSB (11747773_x_at) / Fold change /veh SPTSSB (11747773_x_at) / RFU PRSS12 (11739890_at) / Fold change /veh PRSS12 (11739890_at) / RFU BIN1 (11741810_x_at) / Fold change /veh BIN1 (11741810_x_at) / RFU WNT11 (11732464_a_at) / Fold change /veh WNT11 (11732464_a_at) / RFU C10orf10 (11716521_a_at) / Fold change /veh C10orf10 (11716521_a_at) / RFU C5orf56 (11738089_at) / Fold change /veh C5orf56 (11738089_at) / RFU CYB561 (11721691_x_at) / Fold change /veh CYB561 (11721691_x_at) / RFU ANKRD19P (11752326_a_at) / Fold change /veh ANKRD19P (11752326_a_at) / RFU OR2T12 /// OR2T33 /// OR2T8 (11738714_s_at) / Fold change /veh OR2T12 /// OR2T33 /// OR2T8 (11738714_s_at) / RFU VCAN (11748164_a_at) / Fold change /veh VCAN (11748164_a_at) / RFU JSRP1 (11732532_at) / Fold change /veh JSRP1 (11732532_at) / RFU KRTAP10-11 (11738290_x_at) / Fold change /veh KRTAP10-11 (11738290_x_at) / RFU MYO3A (11730013_a_at) / Fold change /veh MYO3A (11730013_a_at) / RFU EBF3 (11725865_a_at) / Fold change /veh EBF3 (11725865_a_at) / RFU CAMK2N1 (11719241_x_at) / Fold change /veh CAMK2N1 (11719241_x_at) / RFU C5orf56 (11738088_a_at) / Fold change /veh C5orf56 (11738088_a_at) / RFU OLFML3 (11715873_a_at) / Fold change /veh OLFML3 (11715873_a_at) / RFU LOC100653217 /// NTM (11731650_a_at) / Fold change /veh LOC100653217 /// NTM (11731650_a_at) / RFU MAPK11 (11762145_a_at) / Fold change /veh MAPK11 (11762145_a_at) / RFU FIZ1 (11724087_x_at) / Fold change /veh FIZ1 (11724087_x_at) / RFU OASL (11726364_x_at) / Fold change /veh OASL (11726364_x_at) / RFU SOX15 (11748057_x_at) / Fold change /veh SOX15 (11748057_x_at) / RFU CD79A (11719716_a_at) / Fold change /veh CD79A (11719716_a_at) / RFU HIST1H1D (11736915_at) / Fold change /veh HIST1H1D (11736915_at) / RFU CASKIN2 (11723855_a_at) / Fold change /veh CASKIN2 (11723855_a_at) / RFU LOC730098 (11760151_x_at) / Fold change /veh LOC730098 (11760151_x_at) / RFU OR4N2 (11742367_at) / Fold change /veh OR4N2 (11742367_at) / RFU PRRT2 (11749266_a_at) / Fold change /veh PRRT2 (11749266_a_at) / RFU SNX32 (11753110_a_at) / Fold change /veh SNX32 (11753110_a_at) / RFU CDHR5 (11726645_a_at) / Fold change /veh CDHR5 (11726645_a_at) / RFU RCAN1 (11760418_a_at) / Fold change /veh RCAN1 (11760418_a_at) / RFU FAM167A (11723789_a_at) / Fold change /veh FAM167A (11723789_a_at) / RFU FAM26E (11764081_at) / Fold change /veh FAM26E (11764081_at) / RFU ISYNA1 (11749810_s_at) / Fold change /veh ISYNA1 (11749810_s_at) / RFU ACY1 (11761880_at) / Fold change /veh ACY1 (11761880_at) / RFU 11764098_at / Fold change /veh 11764098_at / RFU SAMD14 (11745864_x_at) / Fold change /veh SAMD14 (11745864_x_at) / RFU NPB (11741838_a_at) / Fold change /veh NPB (11741838_a_at) / RFU TMPRSS6 (11731388_a_at) / Fold change /veh TMPRSS6 (11731388_a_at) / RFU KRTAP10-2 (11738614_at) / Fold change /veh KRTAP10-2 (11738614_at) / RFU ARHGAP8 /// PRR5-ARHGAP8 (11727945_x_at) / Fold change /veh ARHGAP8 /// PRR5-ARHGAP8 (11727945_x_at) / RFU KRTAP5-7 /// NADSYN1 (11734609_at) / Fold change /veh KRTAP5-7 /// NADSYN1 (11734609_at) / RFU RASL12 (11751679_a_at) / Fold change /veh RASL12 (11751679_a_at) / RFU CDKN2B (11736163_a_at) / Fold change /veh CDKN2B (11736163_a_at) / RFU PRF1 (11729649_at) / Fold change /veh PRF1 (11729649_at) / RFU, ZNF638 /// ZNF638-IT1 / Fold change vs veh, ZNF638 /// ZNF638-IT1 / RFU, PANK3 / Fold change vs veh, PANK3 / RFU, SH3YL1 / Fold change vs veh, SH3YL1 / RFU, ZEB2 / Fold change vs veh, ZEB2 / RFU, NRIP1 / Fold change vs veh, NRIP1 / RFU, PTTG1IP / Fold change vs veh, PTTG1IP / RFU, CAPN2 / Fold change vs veh, CAPN2 / RFU, MED14 / Fold change vs veh, MED14 / RFU, SNORA58 / Fold change vs veh, SNORA58 / RFU, C1orf63 / Fold change vs veh, C1orf63 / RFU, LRRFIP1 / Fold change vs veh, LRRFIP1 / RFU, NDUFAF7 / Fold change vs veh, NDUFAF7 / RFU, SLC12A2 / Fold change vs veh, SLC12A2 / RFU, IBTK / Fold change vs veh, IBTK / RFU, ESF1 / Fold change vs veh, ESF1 / Fold change vs veh, TMEM50B / RFU, TAOK1 / Fold change vs veh, TAOK1 / RFU, ACBD3 / Fold change vs veh, ACBD3 / RFU, TMA16 / Fold change vs veh, TMA16 / RFU, RWDD3 / Fold change vs veh, RWDD3 / RFU, BCAT1 / Fold change vs veh, BCAT1 / RFU, EDEM3 / Fold change vs veh, EDEM3 / RFU, TMEM33 / Fold change vs veh, TMEM33 / RFU, WDR75 / Fold change vs veh, WDR75 / RFU, AHCTF1 / Fold change vs veh, AHCTF1 / RFU, TFRC / Fold change vs veh, TFRC / RFU, ZDHHC17 / Fold change vs veh, ZDHHC17 / RFU, NOM1 / Fold change vs veh, NOM1 / RFU, ARL8B / Fold change vs veh, ARL8B / RFU, ZBTB11 / Fold change vs veh, ZBTB11 / RFU, TAMM41 / Fold change vs veh, TAMM41 / RFU, KIAA1704 /// LOC100996395 / Fold change vs veh, KIAA1704 /// LOC100996395 / RFU, ING1 / Fold change vs veh, ING1 / RFU, TRMT61B / Fold change vs veh, TRMT61B / RFU, FUBP3 / Fold change vs veh, FUBP3 / RFU, TP53 / Fold change vs veh, TP53 / RFU, TNKS2 / Fold change vs veh, TNKS2 / RFU, ZFP14 / Fold change vs veh, ZFP14 / RFU, ACTR2 / Fold change vs veh, ACTR2 / RFU, PPP3R1 / Fold change vs veh, PPP3R1 / RFU, PIK3R1 / Fold change vs veh, PIK3R1 / RFU, HNRNPA1 / Fold change vs veh, HNRNPA1 / RFU, RNF170 / Fold change vs veh, RNF170 / RFU, ZNF28 / Fold change vs veh, ZNF28 / RFU, RNGTT / Fold change vs veh, RNGTT / RFU, OGT / Fold change vs veh, OGT / RFU, BRD1 / Fold change vs veh, BRD1 / RFU, MARS / Fold change vs veh, MARS / RFU, ZNF655 / Fold change vs veh, ZNF655 / RFU, FAHD1 / Fold change vs veh, FAHD1 / RFU, BDP1 / Fold change vs veh, BDP1 / RFU, LRRCC1 / Fold change vs veh, LRRCC1 / RFU, ARID1A / Fold change vs veh, ARID1A / RFU, ZNF146 / Fold change vs veh, ZNF146 / RFU, ZNF330 / Fold change vs veh, ZNF330 / RFU, GPN3 / Fold change vs veh, GPN3 / RFU, C9orf123 / Fold change vs veh, C9orf123 / RFU, N4BP2L2 / Fold change vs veh, N4BP2L2 / RFU, ARFIP1 / Fold change vs veh, ARFIP1 / RFU, FAM179B / Fold change vs veh, FAM179B / RFU, BCL10 / Fold change vs veh, BCL10 / RFU, UHRF1BP1L / Fold change vs veh, UHRF1BP1L / RFU, BET1 / Fold change vs veh, BET1 / RFU, CNOT2 / Fold change vs veh, CNOT2 / RFU, ZNF268 / Fold change vs veh, ZNF268 / Fold change vs veh, ZNF507 / RFU, DGCR2 / Fold change vs veh, DGCR2 / RFU, WDSUB1 / Fold change vs veh, WDSUB1 / Fold change vs veh, HSP90B1 /// MIR3652 / RFU, ADSS / Fold change vs veh, ADSS / RFU, GK / Fold change vs veh, GK / RFU, ZNF148 / Fold change vs veh, ZNF148 / RFU, TAF9 / Fold change vs veh, TAF9 / RFU, SLC1A5 / Fold change vs veh, SLC1A5 / RFU, SLMO2 / Fold change vs veh, SLMO2 / RFU, ABCC4 / Fold change vs veh, ABCC4 / RFU, LOC101060439 /// RAP1B / Fold change vs veh, LOC101060439 /// RAP1B / RFU, RFX7 / Fold change vs veh, RFX7 / RFU, GTPBP10 / Fold change vs veh, GTPBP10 / RFU, CNEP1R1 / Fold change vs veh, CNEP1R1 / RFU, BIVM-ERCC5 /// ERCC5 / Fold change vs veh, BIVM-ERCC5 /// ERCC5 / RFU, ILF3 / Fold change vs veh, ILF3 / RFU 11762660_at / Fold change /veh 11762660_at / RFU VCAN (11757783_s_at) / Fold change /veh VCAN (11757783_s_at) / RFU DDX43 (11728927_at) / Fold change /veh DDX43 (11728927_at) / RFU KRT8 (11758188_x_at) / Fold change /veh KRT8 (11758188_x_at) / RFU NKD1 (11759106_at) / Fold change /veh NKD1 (11759106_at) / RFU SRD5A1 (11742802_a_at) / Fold change /veh SRD5A1 (11742802_a_at) / RFU TPSAB1 /// TPSB2 (11721975_s_at) / Fold change /veh TPSAB1 /// TPSB2 (11721975_s_at) / RFU GSTM3 (11746129_a_at) / Fold change /veh GSTM3 (11746129_a_at) / RFU IL23R (11737362_x_at) / Fold change /veh IL23R (11737362_x_at) / RFU TMEM51 (11727254_a_at) / Fold change /veh TMEM51 (11727254_a_at) / RFU PIWIL2 (11732686_x_at) / Fold change /veh PIWIL2 (11732686_x_at) / RFU ORM1 (11744905_x_at) / Fold change /veh ORM1 (11744905_x_at) / RFU CCDC152 (11743942_at) / Fold change /veh CCDC152 (11743942_at) / RFU ECM1 (11717891_a_at) / Fold change /veh ECM1 (11717891_a_at) / RFU IL23R (11748794_a_at) / Fold change /veh IL23R (11748794_a_at) / RFU TNFAIP8L3 (11732012_x_at) / Fold change /veh TNFAIP8L3 (11732012_x_at) / RFU MBOAT4 (11741988_at) / Fold change /veh MBOAT4 (11741988_at) / RFU 11764193_at / Fold change /veh 11764193_at / RFU TMEM53 (11763286_at) / Fold change /veh TMEM53 (11763286_at) / RFU MAGEB2 (11727129_at) / Fold change /veh MAGEB2 (11727129_at) / RFU TMEM200A (11744735_a_at) / Fold change /veh TMEM200A (11744735_a_at) / RFU CCDC152 (11751479_a_at) / Fold change /veh CCDC152 (11751479_a_at) / RFU FAM211A (11726209_a_at) / Fold change /veh FAM211A (11726209_a_at) / RFU RGS16 (11746705_a_at) / Fold change /veh RGS16 (11746705_a_at) / RFU VCAN (11755009_s_at) / Fold change /veh VCAN (11755009_s_at) / RFU RHOB (11743442_s_at) / Fold change /veh RHOB (11743442_s_at) / RFU RGS16 (11720943_a_at) / Fold change /veh RGS16 (11720943_a_at) / RFU RGS16 (11720944_at) / Fold change /veh RGS16 (11720944_at) / RFU, VPS4B / Fold change vs veh, VPS4B / RFU, CREB1 / Fold change vs veh, CREB1 / RFU, DNAJC13 / Fold change vs veh, DNAJC13 / RFU, GNAQ / Fold change vs veh, GNAQ / RFU, CDK5R1 / Fold change vs veh, CDK5R1 / RFU, ZRANB3 / Fold change vs veh, ZRANB3 / RFU, CUL4A / Fold change vs veh, CUL4A / RFU, CCNY / Fold change vs veh, CCNY / RFU, UFL1 / Fold change vs veh, UFL1 / RFU, COG3 / Fold change vs veh, COG3 / RFU, DIAPH2 / Fold change vs veh, DIAPH2 / RFU, SKA2 / Fold change vs veh, SKA2 / RFU, AFF3 / Fold change vs veh, AFF3 / RFU, LMF1 / Fold change vs veh, LMF1 / RFU, IPO11 / Fold change vs veh, IPO11 / RFU, DFFB / Fold change vs veh, DFFB / RFU, FOXP1 / Fold change vs veh, FOXP1 / RFU, CARD8 / Fold change vs veh, CARD8 / RFU, STRN3 / Fold change vs veh, STRN3 / RFU, ADK / Fold change vs veh, ADK / RFU, RASSF2 / Fold change vs veh, RASSF2 / RFU, WIPF1 / Fold change vs veh, WIPF1 / RFU, LARP1B / Fold change vs veh, LARP1B / RFU, RASA1 / Fold change vs veh, RASA1 / RFU, RB1 / Fold change vs veh, RB1 / RFU, PPFIA1 / Fold change vs veh, PPFIA1 / RFU, MAT2A / Fold change vs veh, MAT2A / RFU, CCT5 / Fold change vs veh, CCT5 / RFU, WDR92 / Fold change vs veh, WDR92 / RFU, CUX1 / Fold change vs veh, CUX1 / RFU, TTC7A / Fold change vs veh, TTC7A / RFU, TMEM135 / Fold change vs veh, TMEM135 / RFU, DEPTOR / Fold change vs veh, DEPTOR / RFU, CPM / Fold change vs veh, CPM / RFU, DNAJB6 / Fold change vs veh, DNAJB6 / RFU, CACNA2D3 / Fold change vs veh, CACNA2D3 / RFU, DTX4 / Fold change vs veh, DTX4 / RFU, TFCP2 / Fold change vs veh, TFCP2 / RFU, GMCL1 /// GMCL1P1 / Fold change vs veh, GMCL1 /// GMCL1P1 / RFU, AEBP2 / Fold change vs veh, AEBP2 / RFU, SNHG1 /// SNORD22 /// SNORD25 /// SNORD26 /// SNORD27 /// SNORD28 /// SNORD29 /// SNORD31 / Fold change vs veh, SNHG1 /// SNORD22 /// SNORD25 /// SNORD26 /// SNORD27 /// SNORD28 /// SNORD29 /// SNORD31 / Fold change (Aza/veh), C12orf56 (ProbeSet 11735607_a_at) / Fold change (ACY-1035/veh), C12orf56 (ProbeSet 11735607_a_at) / Fold change (Aza/veh), FGFR1OP (ProbeSet 11751329_s_at) / Fold change (ACY-1035/veh), FGFR1OP (ProbeSet 11751329_s_at) / Fold change (Aza/veh), VPS36 (ProbeSet 11739960_a_at) / Fold change (ACY-1035/veh), VPS36 (ProbeSet 11739960_a_at) / RFU SYPL1 (11715823_x_at) / Fold change /veh SYPL1 (11715823_x_at) / RFU IGFBP7 (11715501_s_at) / Fold change /veh IGFBP7 (11715501_s_at) / RFU REEP3 (11722064_at) / Fold change /veh REEP3 (11722064_at) / RFU IGLL1 (11728026_x_at) / Fold change /veh IGLL1 (11728026_x_at): dose or concentration left out as unconfirmed
Settings: MV-4-11 cells, 48 hours

Nc1ccc(-c2cccs2)cc1NC(=O)c1ccc2c(c1)cc(C1CC1)n2CCN1CCOCC1 [ACY-1035]
Fold change /veh DUSP10 (11751237_a_at): 1.17
